Values after ≈ are worked out from the molar mass of the structure shown. Active and inactive are the calls of the source. The calls are words filed in the database; no cut-off is given here.
Tests used:
Streptococcus mitis = assay: Antibacterial activity against Streptococcus mitis by CLSI M100-S18 method; assay type: functional
Streptococcus oralis = assay: Antibacterial activity against Streptococcus oralis by CLSI M100-S18 method; assay type: functional
Streptococcus pyogenes [1] = assay: Antibacterial activity against Streptococcus pyogenes assessed as percent susceptible isolates by CLSI M100-S18 method; assay type: functional
[2] = tested on: Staphylococcus saprophyticus; assay: Antibacterial activity against Staphylococcus saprophyticus by CLSI M100-S18 method; assay type: functional
Klebsiella oxytoca [3] = assay: Antibacterial activity against Klebsiella oxytoca assessed as percent susceptible isolates by CLSI M7-A7 method; assay type: functional
Staphylococcus aureus [4] = assay: Antibacterial activity against ciprofloxacin-susceptible and methicillin-resistant Staphylococcus aureus assessed as percent susceptible isolates by CLSI M100-S18 method; assay type: functional
Staphylococcus hominis = assay: Antibacterial activity against Staphylococcus hominis by CLSI M100-S18 method; assay type: functional
Cutibacterium acnes = assay: Antibacterial activity against Propionibacterium acnes assessed as percent susceptible isolates by CLSI M11-A7 method; assay type: functional
Streptococcus equinus = assay: Antibacterial activity against Streptococcus bovis by CLSI M100-S18 method; assay type: functional
Streptococcus pyogenes [5] = assay: Antibacterial activity against Streptococcus pyogenes by CLSI M100-S18 method; assay type: functional
Clostridium perfringens [6] = tested on: Clostridium perfringens
[7] = tested on: Staphylococcus epidermidis; assay: Antibacterial activity against ciprofloxacin-susceptible and methicillin-resistant Staphylococcus epidermidis by CLSI M100-S18 method; assay type: functional
Citrobacter koseri [8] = assay: Antibacterial activity against Citrobacter koseri assessed as percent susceptible isolates by CLSI M7-A7 method; assay type: functional
[9] = Antibacterial activity against Lancefield Streptococcus sp. 'group C' by CLSI M100-S18 method; assay type: functional
Citrobacter koseri [10] = assay: Antibacterial activity against Citrobacter koseri by CLSI M7-A7 method; assay type: functional
Bacteroides fragilis = assay: Antibacterial activity against Bacteroides fragilis assessed as percent susceptible isolates by CLSI M11-A7 method; assay type: functional
[11] = tested on: Staphylococcus epidermidis; assay: Antibacterial activity against non-ciprofloxacin-susceptible and methicillin-susceptible Staphylococcus epidermidis by CLSI M100-S18 method; assay type: functional
[12] = tested on: Streptococcus intermedius; assay: Antibacterial activity against Streptococcus intermedius by CLSI M100-S18 method; assay type: functional
[13] = tested on: Staphylococcus epidermidis
[14] = Antibacterial activity against Lancefield Streptococcus sp. 'group G' assessed as percent susceptible isolates by CLSI M100-S18 method; assay type: functional
[15] = tested on: Staphylococcus epidermidis; assay: Antibacterial activity against ciprofloxacin-susceptible and methicillin-resistant Staphylococcus epidermidis assessed as percent susceptible isolates by CLSI M100-S18 method; assay type: functional
Streptococcus sanguinis = assay: Antibacterial activity against Streptococcus sanguinis by CLSI M100-S18 method; assay type: functional
Streptococcus agalactiae = assay: Antibacterial activity against Streptococcus agalactiae assessed as percent susceptible isolates by CLSI M100-S18 method; assay type: functional
Clostridium perfringens [16] = assay: Antibacterial activity against Clostridium perfringens by CLSI M11-A7 method; assay type: functional
Staphylococcus aureus [17] = assay: Antibacterial activity against non-ciprofloxacin-susceptible and methicillin-susceptible Staphylococcus aureus assessed as percent susceptible isolates by CLSI M100-S18 method; assay type: functional
Fusobacterium sp. = assay: Antibacterial activity against Fusobacterium sp. assessed as percent susceptible isolates by CLSI M11-A7 method; assay type: functional
Klebsiella oxytoca [18] = assay: Antibacterial activity against Klebsiella oxytoca by CLSI M7-A7 method; assay type: functional
[19] = tested on: Staphylococcus lugdunensis; assay: Antibacterial activity against Staphylococcus lugdunensis by CLSI M100-S18 method; assay type: functional
[20] = tested on: Streptococcus constellatus; assay: Antibacterial activity against Streptococcus constellatus by CLSI M100-S18 method; assay type: functional
Staphylococcus warneri = assay: Antibacterial activity against Staphylococcus warneri assessed as percent susceptible isolates by CLSI M100-S18 method; assay type: functional

## COc1c(N2CCNC(C)C2)c(F)cc2c(=O)c(C(=O)O)cn(C3CC3)c12 (configuration not stated) [GATIFLOXACIN]
Streptococcus mitis
  MIC50: 0.06 mg/L (≈ 0.16 µM)
  MIC90: 1 mg/L (≈ 2.66 µM)
Streptococcus oralis
  MIC50: 0.06 mg/L (≈ 0.16 µM)
  MIC90: 1 mg/L (≈ 2.66 µM)
Streptococcus pyogenes [1]
  Activity: <=0.015%
[2]
  MIC50: 0.12 mg/L (≈ 0.32 µM)
  MIC90: 0.25 mg/L (≈ 0.666 µM)
Klebsiella oxytoca [3]
  Activity: 96%
Staphylococcus aureus [4]
  Activity: 94.7%
Staphylococcus hominis
  MIC50: 1 mg/L (≈ 2.66 µM)
  MIC90: 4 mg/L (≈ 10.7 µM)
Cutibacterium acnes
  Activity: inactive
Streptococcus equinus
  MIC50: 0.06 mg/L (≈ 0.16 µM)
  MIC90: 1 mg/L (≈ 2.66 µM)
Streptococcus pyogenes [5]
  MIC50: 0.12 mg/L (≈ 0.32 µM)
  MIC90: 0.25 mg/L (≈ 0.666 µM)
Clostridium perfringens [6]
  Activity: inactive
[7]
  MIC: 0.06 mg/L (≈ 0.16 µM)
  MIC50: 0.06 mg/L (≈ 0.16 µM)
Citrobacter koseri [8]
  Activity: 99%
[9]
  MIC: ≤ 0.015 mg/L
  MIC50: ≤ 0.015 mg/L
  MIC90: 0.06 mg/L (≈ 0.16 µM)
Citrobacter koseri [10]
  MIC50: 0.015 mg/L (≈ 0.04 µM)
  MIC90: 0.12 mg/L (≈ 0.32 µM)
Bacteroides fragilis
  Activity: inactive
[11]
  MIC: 1 mg/L (≈ 2.66 µM)
  MIC50: 1 mg/L (≈ 2.66 µM)
[12]
  MIC50: 0.06 mg/L (≈ 0.16 µM)
  MIC90: 1 mg/L (≈ 2.66 µM)
[13]
  MIC90: inactive
[14]
  Activity: 100%
[15]
  Activity: 88.9%
Streptococcus sanguinis
  MIC50: 0.06 mg/L (≈ 0.16 µM)
  MIC90: 1 mg/L (≈ 2.66 µM)
Streptococcus agalactiae
  Activity: 100%
Clostridium perfringens [16]
  MIC50: 1 mg/L (≈ 2.66 µM)
  MIC90: 1 mg/L (≈ 2.66 µM)
Staphylococcus aureus [17]
  Activity: 54.5%
Fusobacterium sp.
  Activity: inactive
Klebsiella oxytoca [18]
  MIC50: 0.03 mg/L (≈ 0.0799 µM)
  MIC90: 0.5 mg/L (≈ 1.33 µM)
[19]
  MIC50: 0.12 mg/L (≈ 0.32 µM)
  MIC90: 2 mg/L (≈ 5.33 µM)
[20]
  MIC50: 0.06 mg/L (≈ 0.16 µM)
  MIC90: 1 mg/L (≈ 2.66 µM)
Staphylococcus warneri
  Activity: 86%
